Laboratory results from patent publication US20110195041A1, “ANTIMICROBIAL COMPOSITIONS” (NDSU RESEARCH FOUNDATION, priority 2008, published 2011).
Converted amounts (≈) assume the structure as drawn.

Columns and labels:
C. lytica = assay: Minimum inhibitory concentration (MIC) of triclosan; type: cell-based; details: Cellulophaga lytica; marine broth; range 0.2 to 25 μg/mL; complete growth inhibition
Description: (§1) The antimicrobial activity of triclosan toward the microorganisms of interest was determined by measuring the minimum inhibitor concentration (MIC). The protocol for determining the minimum inhibitory concentration (MIC) of antimicrobial agents in solution has been reported previously (described in Stafslien, S., et al., Biofouling, 2007. 23(1/2): 37-44.). Triclosan was serially diluted (2-fold) in marine broth, tryptic soy broth, and Guillard's F/2 medium for the MIC evaluation of C. lytica, S. epidermidis or E. coli, and N. incerta, respectively. The triclosan concentration range evaluated was from 0.2 μg/mL to 25 μg/mL.

S. epidermidis = assay: as above; type: cell-based; details: Staphylococcus epidermidis; tryptic soy broth; range 0.2 to 25 μg/mL; complete growth inhibition
Description: as §1

**Q.** With Oc1cc(Cl)ccc1Oc1ccc(Cl)cc1Cl [Triclosan, 5-chloro-2-(2,4-dichlorophenoxy)phenol] as the compound, how does the MIC (C. lytica) read?
**A.** 12.5 µg/mL (≈ 43.2 µM)

**Q.** What about the MIC (S. epidermidis) of the same compound?
**A.** ≤ 0.2 µg/mL
